Assay results as given in ChEMBL document CHEMBL1201862, “PubChem BioAssay data set” (2004).
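96-well plates; 48 h exposure; 5 concentrations. Endpoints by linear interpolation between flanking doses. Not reached: highest tested concentration assigned. GI50 marks 50% less growth.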 The source made the active and inactive calls. Rule as the data show it: active = GI50 up to about 1.1 µM and inactive = higher.

Columns and labels:
Experiment in all cases: DTP human tumour cell line panel, 48 h
[1] = tested on: PC-3
[2] = tested on: NCI-H460
[3] = tested on: KM12
[4] = tested on: MDA-MB-435
[5] = tested on: OVCAR-4
[6] = tested on: SNB-19
[7] = tested on: SK-MEL-2
[8] = tested on: UACC-257
[9] = tested on: 786-0
[10] = tested on: Malme-3M
[11] = tested on: UO-31
[12] = tested on: MDA-N
[13] = tested on: NCI-H23
[14] = tested on: OVCAR-3
[15] = tested on: MCF7
[16] = tested on: HCT-15
[17] = tested on: NCI-H522
[18] = tested on: CAKI-1
[19] = tested on: TK-10
[20] = tested on: RXF 393

Structure (SMILES)	GI50 [1]	GI50 [2]	GI50 [3]	GI50 [4]	GI50 [5]	GI50 [6]	GI50 [7]	GI50 [8]	GI50 [9]	GI50 [10]	GI50 [11]	GI50 [12]	GI50 [13]	GI50 [14]	GI50 [15]	GI50 [16] [µM]	GI50 [17]	GI50 [18]	GI50 [19]	GI50 [20]
OCCN(CO)CO	> 100 µM (inactive)	> 100 µM (inactive)	> 100 µM (inactive)	> 100 µM (inactive)	> 100 µM (inactive)	> 100 µM (inactive)	> 100 µM (inactive)	> 100 µM (inactive)	91.4 µM (inactive)	> 100 µM (inactive)	> 100 µM (inactive)	> 100 µM (inactive)	> 100 µM (inactive)	> 100 µM (inactive)	> 100 µM (inactive)	> 100	> 100 µM (inactive)	> 100 µM (inactive)	> 100 µM (inactive)	> 100 µM (inactive)
O=C1CN2CCN(CC2)CC(=O)Nc2ccc(cc2)S(=O)(=O)c2ccc(cc2)NC(=O)CN2CCN(CC2)CC(=O)Nc2ccc(cc2)S(=O)(=O)c2ccc(cc2)N1	> 100 µM (inactive)	19.5 µM (inactive)	32.2 µM (inactive)	35.2 µM (inactive)	> 100 µM (inactive)	> 100 µM (inactive)	> 71.1 µM (inactive)	> 100 µM (inactive)	33.3 µM (inactive)	15.8 µM (inactive)	> 92.5 µM (inactive)	41.8 µM (inactive)	44 µM (inactive)	27.9 µM (inactive)	18.1 µM (inactive)	13.4	4.71 µM (inactive)	> 47.8 µM (inactive)	> 92.7 µM (inactive)	55.2 µM (inactive)
CC(=O)N1CC[N+](C)(CCCCN2c3ccccc3Sc3cc(N=[N+]=[N-])ccc32)CC1	> 100 µM (inactive)	> 100 µM (inactive)	> 100 µM (inactive)	> 100 µM (inactive)	18 µM (inactive)	> 100 µM (inactive)	> 100 µM (inactive)	> 100 µM (inactive)	> 100 µM (inactive)	> 100 µM (inactive)	> 100 µM (inactive)	> 100 µM (inactive)	> 100 µM (inactive)	> 100 µM (inactive)	> 100 µM (inactive)	> 100	> 100 µM (inactive)	> 100 µM (inactive)	> 100 µM (inactive)	> 100 µM (inactive)
CC(=O)NC1C(OCc2ccccc2)OC(CO)C(O)C1OCC(=O)N[C@@H](C)C(=O)N[C@H](CCC(=O)NCCCNc1c2ccccc2nc2cccc([N+](=O)[O-])c12)C(N)=O (stereo not given in full)	0.0368 µM (active)	0.0101 µM (active)	0.037 µM (active)	0.0295 µM (active)	0.0418 µM (active)	0.16 µM (active)	0.0404 µM (active)	0.0448 µM (active)	< 0.0168 µM (active)	0.0292 µM (active)	0.123 µM (active)	0.023 µM (active)	0.0248 µM (active)	0.0678 µM (active)	0.018 µM (active)	0.0312	< 0.0111 µM (active)	0.0338 µM (active)	0.0253 µM (active)	0.0352 µM (active)
C=CCOc1ccc(C(=N/NC(=O)c2ccccc2)/N=N/c2ccccc2)cc1OC	79.1 µM (inactive)	40.6 µM (inactive)	54.2 µM (inactive)	> 100 µM (inactive)	89.9 µM (inactive)	> 100 µM (inactive)	> 100 µM (inactive)	> 100 µM (inactive)	> 100 µM (inactive)	> 100 µM (inactive)	92.9 µM (inactive)	> 100 µM (inactive)	73.8 µM (inactive)	86.9 µM (inactive)	> 100 µM (inactive)	63.8	93.5 µM (inactive)	> 100 µM (inactive)	> 100 µM (inactive)	> 100 µM (inactive)
COc1ccc([C@]23CCC4(OCC(C)(C)CO4)[C@H]4CON(O[C@H](O[C@@H]5CCCCC5C(C)(C)c5ccccc5)C2)[C@@H]43)cc1OC (stereo not given in full)	39.6 µM (inactive)	79.4 µM (inactive)	29.6 µM (inactive)	25.9 µM (inactive)	26.1 µM (inactive)	61.7 µM (inactive)	47.1 µM (inactive)	36.6 µM (inactive)	50.5 µM (inactive)	56.6 µM (inactive)	35.8 µM (inactive)	28.8 µM (inactive)	47.6 µM (inactive)	34 µM (inactive)	30.1 µM (inactive)	37.8	27 µM (inactive)	13.6 µM (inactive)	78.5 µM (inactive)	25.4 µM (inactive)
O=C(Cc1nc2ccccc2[nH]c1=O)c1c[nH]c2ccccc12	10.5 µM (inactive)	6.58 µM (inactive)	5.77 µM (inactive)	13.7 µM (inactive)	11.4 µM (inactive)	25.8 µM (inactive)	10.1 µM (inactive)	23.8 µM (inactive)	13.9 µM (inactive)	32.9 µM (inactive)	11.9 µM (inactive)	12.1 µM (inactive)	20.4 µM (inactive)	14 µM (inactive)	11.6 µM (inactive)	8.18	14.8 µM (inactive)	20.2 µM (inactive)	7.57 µM (inactive)	17.5 µM (inactive)
COc1ccc(C(=O)c2ccc(-n3cc(/C=C/[N+](=O)[O-])c4ccccc43)cc2)cc1	18.8 µM (inactive)	35.9 µM (inactive)	20.7 µM (inactive)	16.2 µM (inactive)	29.4 µM (inactive)	30.2 µM (inactive)	23.1 µM (inactive)	10.2 µM (inactive)	3.52 µM (inactive)	20.2 µM (inactive)	19.5 µM (inactive)	22.8 µM (inactive)	20.1 µM (inactive)	13.6 µM (inactive)	9.08 µM (inactive)	7	15.4 µM (inactive)	19.1 µM (inactive)	6.3 µM (inactive)	5.45 µM (inactive)
O=C(O)c1ccccc1/C=N/N=C1c2ccccc2-c2ccccc21	30.3 µM (inactive)	26.7 µM (inactive)	22.2 µM (inactive)	29.9 µM (inactive)	35.2 µM (inactive)	39.9 µM (inactive)	44.1 µM (inactive)	85.1 µM (inactive)	29.6 µM (inactive)	23.3 µM (inactive)	32.7 µM (inactive)	37.5 µM (inactive)	38.5 µM (inactive)	15.6 µM (inactive)	31.2 µM (inactive)	44.8	28.6 µM (inactive)	35.3 µM (inactive)	74.8 µM (inactive)	29 µM (inactive)
OC(c1ccccc1)c1c(-c2ccccc2)[nH]c(-c2ccccc2)c1C(O)c1ccccc1 (stereo not given)	2.54 µM (inactive)	3.06 µM (inactive)	3.25 µM (inactive)	3.18 µM (inactive)	< 0.01 µM (active)	3.56 µM (inactive)	1.95 µM (inactive)	3.04 µM (inactive)	4.38 µM (inactive)	2.59 µM (inactive)	1.45 µM (inactive)	2.59 µM (inactive)	3.52 µM (inactive)	2.5 µM (inactive)	3.78 µM (inactive)	3.76	3.27 µM (inactive)	2.55 µM (inactive)	4.44 µM (inactive)	2.88 µM (inactive)
C=C(C)[C@@H]1CC[C@]2(C(=O)O)CC[C@]3(C)[C@H](CC[C@@H]4[C@@]5(C)CC[C@H](C(=O)/C=C/c6ccc(O)cc6)C(C)(C)[C@@H]5CC[C@]43C)[C@@H]12	5.98 µM (inactive)	2.73 µM (inactive)	3.29 µM (inactive)	7.67 µM (inactive)	9.98 µM (inactive)	6.92 µM (inactive)	16.3 µM (inactive)	3.58 µM (inactive)	4.92 µM (inactive)	13.5 µM (inactive)	5.2 µM (inactive)	4.72 µM (inactive)	4.22 µM (inactive)	3.39 µM (inactive)	3.67 µM (inactive)	3.45	3.41 µM (inactive)	2.64 µM (inactive)	7.82 µM (inactive)	6.41 µM (inactive)
COc1cc2c(cc1OCCCC(=O)Nc1cc(C(=O)Nc3cc(C(=O)Nc4cc(C(=O)NCCCN(C)C)n(C)c4)n(C)c3)n(C)c1)N=C[C@@H]1CCCN1C2=O	2.28 µM (inactive)	3.21 µM (inactive)	16.3 µM (inactive)	1.79 µM (inactive)	1.95 µM (inactive)	6.32 µM (inactive)	2.53 µM (inactive)	1.97 µM (inactive)	1.12 µM (active)	1.82 µM (inactive)	1.66 µM (inactive)	1.84 µM (inactive)	1.77 µM (inactive)	2.02 µM (inactive)	2.16 µM (inactive)	1.82	0.224 µM (active)	0.587 µM (active)	1.87 µM (inactive)	1.66 µM (inactive)
CC(C)C1SCc2nc3ccccc3n21 (stereo not given)	13.2 µM (inactive)	46.3 µM (inactive)	17.8 µM (inactive)	28.8 µM (inactive)	27.4 µM (inactive)	51.8 µM (inactive)	29.8 µM (inactive)	32.8 µM (inactive)	84.9 µM (inactive)	37.2 µM (inactive)	44.8 µM (inactive)	38.9 µM (inactive)	25.9 µM (inactive)	39.8 µM (inactive)	13.9 µM (inactive)	50.1	71.3 µM (inactive)	40.1 µM (inactive)	38.5 µM (inactive)	39.6 µM (inactive)
N#C/C(=C\c1c[nH]c2ccccc12)C(=O)c1ccc(O)c(O)c1	33.8 µM (inactive)	24.5 µM (inactive)	27.7 µM (inactive)	20.8 µM (inactive)	27.2 µM (inactive)	32.4 µM (inactive)	> 36.7 µM (inactive)	50.7 µM (inactive)	22.8 µM (inactive)	> 47.9 µM (inactive)	6.85 µM (inactive)	47.1 µM (inactive)	45.8 µM (inactive)	3.33 µM (inactive)	12 µM (inactive)	22.9	13.5 µM (inactive)	41.5 µM (inactive)	51.2 µM (inactive)	38.9 µM (inactive)
